Experimental data reported in PMC7278359, “Small molecule AX-024 reduces T cell proliferation independently of CD3ϵ/Nck1 interaction, which is governed by a domain swap in the Nck1-SH3.1 domain” (The Journal of Biological Chemistry, 2020).

Legend:
Nck1-SH3.1 [1] = target: T1, Nck1-SH3.1 (Homo sapiens, UniProt P16333); assay: SPR binding to immobilized Nck1-SH3.1; conditions: SPR, peptide up to 200 μM, Nck1-SH3.1 1260 RU, single titration, qualitative
T1 construct: His10-Avi-TEV-Nck1-SH3.1 (residues 1–61, MM 11,847 Da) was biotinylated and immobilized via streptavidin; made in house; host or cells: Escherichia coli BL21 (DE3)
Protocol: SPR experiments were conducted on a T200 Biacore instrument (GE Healthcare, Uppsala, Sweden) at 20 °C in 10 mM HEPES/NaOH, pH 7.8, 150 mM NaCl, 1 mM TCEP. […] Streptavidin is immobilized on the CAP sensor by way of double-strand DNA formation. A ssDNA is covalently coupled to the sensor surface, and a complementary DNA strand, covalently linked to streptavidin, is hybridized. To regenerate the surface, the DNA duplex is dissociated by washing with high-ionic strength solution. […] The reference channel for binding studies contained the same streptavidin-coated surface blocked with biotin.
Five replicates were performed for each CD3ϵ concentration (Table S1), whereas for the qualitative assessment of the APVA variant, only a single titration was performed.
SPR equilibrium signals were corrected for the signal in the reference channel and buffer contributions. The resulting SPR amplitudes were plotted as a function of peptide concentration, and a simple binding equation describing a Langmuir adsorption isotherm was fit to the data (GraphPad Prism) to extract the equilibrium dissociation constant Kd. (Eq. 1) RU=RUmax·[peptide]/[peptide]+Kd

CD4 T cell proliferation = CD4 T cell proliferation by CFSE dilution, anti-CD3 stimulation; format: cell-based, human; conditions: concentrations up to 1 μM; anti-CD3, CFSE dilution, day 4, 0.3% DMSO/0.3% PBS control
Protocol: (§1) Figure 2. […] CD4 T cell proliferation was assessed upon stimulation with anti-CD3ϵ by CFSE dilution as a measure for cellular proliferation, analyzed on day 4. For rapamycin and AX-024–treated cells, the dashed line indicates control proliferation at a DMSO concentration of 0.2%. For CD3ϵ-derived peptides 11Rwt, 11R085, and 11Rscr, the dashed line indicates control proliferation at 0.3% DMSO, 0.3% PBS. 11Rwt has sequence R11-G3-[…], 11R085 R11-G3-Q(dK)[…], and 11Rscr R11-G3-[…](dK)PQP. A polyarginine tag is used to enable cell penetration of the peptides ([10]). The gray boxes indicate concentrations of compound leading to decreased cell viability. These values should be disregarded. Binding of peptides 11Rwt and 11R085, but not 11Rscr, to Nck-SH3.1 was confirmed by NMR spectroscopy (Fig. S1). Asterisks, p < 0.05 as determined by a repeated-measure one-way analysis of variance with Holm–Sidak's multiple-comparison test to DMSO/PBS. Dotted lines, mean DMSO/PBS values. Error bars, S.D.
(§2) Fresh human peripheral blood mononuclear cells (PBMCs) from healthy donors (n = 4) were prepared from buffy coats. CD3^+ T cells were isolated by immunomagnetic separation (negative selection, StemCell, lot 18A87710), carboxyfluorescein succinimidyl ester (CFSE)-labeled, resuspended in StemCell Immunocult^TM-XF T cell expansion medium, and treated with compounds or vehicle for 2 h at room temperature. The isolated CD3^+ T cells were stained for CD3, CD4, and CD8, and their purity was assessed by flow cytometry. Cells were then cultured in a 96-well flat-bottomed plate (10^5 cells/well), precoated for 1 h at 37 °C with 0.2 μg·ml^−1 plate-bound anti-CD3 (clone OKT3, BioLegend). […] Cells were cultured in the presence of AX-024, rapamycin, peptide 11Rwt, peptide 11R85, peptide 11Rscr (derived from Ref. [11]; see below for sequences), or vehicle for 4 days. At the end of culture, cells were stained for viability, and CFSE dilution was assessed by flow cytometry (with gating on CD4 versus CD8).

CD8 T cell proliferation = CD8 T cell proliferation by CFSE dilution; format: cell-based, human; conditions: concentrations low enough to avoid cytotoxic effects; data not shown
Protocol: as §2

CD4 T cell = assay: Cytotoxicity / viability of CD4 T cells in proliferation assay; format: cell-based, human; conditions: 4 days, decreased cell viability (gray boxes in Fig. 2)
Protocol: as §1, §2

Nck1-SH3.1 [2] = target: T1, Nck1-SH3.1; assay: NMR binding of poly-Arg CD3ϵ-derived peptides to Nck1-SH3.1; conditions: Fig. S1
Protocol: NMR spectra were recorded on a Bruker 600-MHz Avance NEO spectrometer equipped with a cryogenic QCI probe head at 27 °C in 25 mM […], 150 mM NaCl. The Topspin 4.0 software (Bruker, Fällanden) was used for spectrometer operation and data processing. For ^1H ligand-observed measurements, a relaxation filtered pulse sequence utilizing a spinlock of 50 ms was applied. 1D spectra were acquired with 128 scans, a sweep width of 26 ppm, and an acquisition time of 2 s. 2D ^1H-^15N HSQC spectra with natural ^15N isotope abundance were recorded over 72 h with a spectral width of 16 ppm and 35 ppm in the proton and nitrogen dimensions, respectively, with 256 increments (complex) and 1000 scans per increment. A relaxation delay of 1 s was used between scans. For the DOSY measurements (reviewed in Ref. [51]), the Bruker pulse sequence ledbpgp2s with a diffusion delay of 50 ms and a gradient length of 600 μs was used. The gradient strength was varied from 5 to 95% to record 16 increments of 512 scans with a sweep width of 18 ppm and a relaxation delay of 1 s.
Samples for ligand-observed measurements were prepared in 25 mM sodium phosphate buffer, pH 6.5, 150 mM NaCl. One sample contained 50 μM AX-024, and the other contained 50 μM CD3ϵ peptide.

Row | fold weaker binding of APVA mutant than WT CD3ϵ peptide (Nck1-SH3.1 [1]) | binding to Nck1-SH3.1 by NMR (Nck1-SH3.1 [2]) | Substance | inhibition of CD4 T cell proliferation by peptides (CD4 T cell proliferation) | effect on CD8 T cell proliferation (CD8 T cell proliferation) | concentration at which peptides were cytotoxic (CD4 T cell)
1 | ~10 -fold |  | RGQNKERPAPVANPDY-NH2 [APVA variant of CD3ϵ peptide] |  |  | 
2 |  | does not | R11-G3-PKVRECPDYK(dK)PQP [11Rscr, scrambled peptide with the same composition as 11R085 but lacking the canonical PRS] | none of the peptides inhibited CD4 T cell proliferation | did not affect CD8 T cell proliferation | exceeding 6 μM
3 |  | bind to Nck1-SH3.1 | R11-G3-RGYNKERPPPVPNPDY [11Rwt, R11-G3-tagged cell-penetrating CD3ϵ-derived peptide] | none of the peptides inhibited CD4 T cell proliferation | did not affect CD8 T cell proliferation | exceeding 6 μM
4 |  | bind to Nck1-SH3.1 | R11-G3-Q(dK)KECPPPVPKRDY [11R085, R11-G3-tagged cell-penetrating CD3ϵ-derived peptide] | none of the peptides inhibited CD4 T cell proliferation | did not affect CD8 T cell proliferation | exceeding 6 μM
